From US8586051B2, “Glycolipids and analogues thereof as antigens for NKT cells” (The Rockefeller University, priority 2004, dated 2013)

What was measured:
[1] = tested on: Vα24i human NKT cell line; assay: In vitro cytokine secretion assay using human NKT cell lines with CD14+ dendritic cells; format: cell-based
Experimental: (§1) Human NKT cell lines, expressing the Vα24i T cell receptor as well as CD161, were generated as follows: Anti-CD161 monoclonal antibodies, and anti-CD14 monoclonal antibodies, each coupled to magnetic beads (Miltenyi biotec, Auburn, Calif.), were used sequentially to isolate CD161^+ cells and CD14^+ cells from leukopaks. Immature dendritic cells were generated from the CD14^+ cells after a two-day incubation in the presence of 300 U/ml GM-CSF (R&D systems, Minneapolis, Minn.) and 100 U/ml IL-4 (R&D systems, Minneapolis, Minn.). Following irradiation with 2000 rads, the immature dendritic cells were co-cultured with syngeneic CD161′ cells in the presence of 100 ng/ml of alpha-galactosylceramide and 10 IU/ml of IL-2 (Invitrogen, Carlsbad Calif.) for 10 to 14 days. After stimulating the CD161^+ cells a second time with alpha-galactosylceramide-pulsed, irradiated immature dendritic cells, NKT cell lines were shown by flow cytometry to express both CD161^+ and V 24i TCR (99% purity).
IFN-γ and IL-4 secretion by the Vα 24i human NKT cell line was determined by ELISA (BD Pharmingen, San Diego, Calif.) after culture for 16 hours. […]
as §1, with “of 100-0.1” for “of 100”
IFN-γ secretion by the Vα 24i human NKT cell line was determined by ELISA (BD Pharmingen, San Diego, Calif.) after culture for 16 hours. […]

[2] = tested on: CD1d reactive T cell hybridomas with an invariant Vα14i T cell antigen receptor α chain; assay: 1.2 Hybridoma assay (IL-2 release by ELISA); format: cell-based, Mouse; conditions: for IL-2 secretion: CD1d coated plates, FIG. 8b; for IL-2 release / IL-2 production: various concentrations, FIG. 13
Experimental: As a measure of T cell activation, IL-2 release into the tissue culture medium was measured after 16 hours culture by an ELISA assay.
As a measure of T cell activation, IL-2 and IFN-γ release into the tissue culture medium was measured after 16 hours culture by an ELISA assay.

Compound: CCCCCCCCCCCCCCC[C@@H](O)[C@H](COC1OC(C(=O)O)C(O)C(O)C1O)NC(=O)CCCCCCCCCCCCC (some centres unmarked) [Compound 5]
- reactivity of human Vα24i NKT cells [1]: conserved

Compound: CCCCCCCCCCCCCCC[C@@H](O)[C@H](COC1OC(C(=O)O)C(O)C(O)C1O)NC(=O)[C@@H](O)CCCCCCCCCCCC (some centres unmarked) [Compound 6]
- reactivity of human Vα24i NKT cells [1]: conserved

Compound: CCCCCCCCCCCCCCC[C@@H](O)[C@H](COC1OC(CO)C(O)C(O)C1O)NC(=O)CCCCCCCCCCCCC (some centres unmarked) [Compound 7]
- IL-2 secretion [2]: greater IL-2 secretion when compared to the galacturonic acid derivatives

Compound: CCCCCCCCCCCCCCC[C@@H](O)[C@H](COC1OC(CO)C(O)C(O)C1O)NC(=O)[C@@H](O)CCCCCCCCCCCC (some centres unmarked) [Compound 8]
- IL-2 secretion [2]: less able to activate IL-2 secretion when compared with 5

Compound: CCCCCCCCCCCCCC[C@@H](O)[C@@H](O)[C@H](COC1OC(CO)C(O)C(O)C1O)NC(=O)CCCCCc1ccccc1 (some centres unmarked) [Compound 83]
- IL-2 release / IL-2 production ([2]; CD1d transfected A20 cells): significant increase of IL-2 production

Compound: CCCCCCCCCCCCCC[C@@H](O)[C@@H](O)[C@H](COC1OC(CO)C(O)C(O)C1O)NC(=O)CCCCCCCc1ccccc1 (some centres unmarked) [Compound 84]
- IL-2 release / IL-2 production ([2]; CD1d transfected A20 cells): significant increase of IL-2 production
- interferon-γ secretion ([1]; 100-0.1 ng/mL, FIGS. 17 and 18): consistently stimulating greater IFN-γ secretion

Compound: CCCCCCCCCCCCCCCCCCCCCCCCCC(=O)N[C@@H](CO[C@H]1O[C@H](CO)[C@H](O)[C@H](O)[C@H]1O)[C@H](O)[C@H](O)CCCCCCCCCCCCCC [α-GalCer, α-Galactosylceramide, reference compound]
- IL-2 release from the hybridomas ([2]; 1 μg/ml, CD1d transfected A20 cells, FIG. 12): greatest amount of IL-2 release
- IL-2 secretion [2]: greater IL-2 secretion when compared to the galacturonic acid derivatives
- IL-4 secretion ([1]; 10 μg/ml glycolipid (1-10 μg/ml for 3-O-sulfo-α-galactosylceramide), 10 IU/ml IL-2): greater IFN-γ and IL-4 secretion
- IFN-γ secretion ([1]; 10 μg/ml glycolipid (1-10 μg/ml for 3-O-sulfo-α-galactosylceramide), 10 IU/ml IL-2, FIG. 9a): greater IFN-γ and IL-4 secretion
